# Assay results as given in patent US20060210659A1, “Anti-obesity agent” (priority 2005, published 2006).
# Assay: Lipid-absorption suppressive activity: plasma triglyceride after oral salad oil tolerance
# Type: in vivo, male ddy line mice
# Description: (§1) Orbital blood collection from male ddy line mice of six weeks old (six animals per group) was carried out, and then 10 mL/kg of water or 0.1 g/kg of aqueous actein solution was orally administrated to each of them. After 30 minutes, 10 mL/kg of salad oil was orally administrated, orbital blood collection was performed after 180 minutes again, and blood plasma was separated to measure the triglyceride level.
# as §1, with “0.2 g/kg or 1.0” for “0.1”, “aqueous” for “aqueous actein”, “solution of Black cohosh extract (Example 1)” for “solution”, “administrated.” for “administrated to each of them.”
smiles,measurement,setting,value
CC(=O)O[C@@H]1C[C@@]23C[C@@]24CC[C@H](O[C@@H]2OC[C@@H](O)[C@H](O)[C@H]2O)C(C)(C)[C@@H]4CC[C@H]3[C@]2(C)C[C@@H]3O[C@]4(C[C@@H](C)[C@@H]3[C@@]12C)O[C@H](O)[C@@]1(C)O[C@@H]41 [actein],"Triglyceride level in blood plasma, before salad oil administration","0.1 g/kg actein oral group, baseline blood collected before dosing, mean ± SD, six animals",110.4 ± 22.2 mg/dL
same,"Triglyceride level in blood plasma, after 180 minutes","0.1 g/kg actein oral, 30 min before 10 mL/kg salad oil, 180 min after oil, mean ± SD",248.6 ± 27.8 mg/dL
same,Triglyceride level in blood plasma after 180 minutes of salad oil tolerance (in words),"0.1 g/kg actein oral, vs water group",significantly suppressed
